The values below come from US20250134884A1, “METHOD AND PHARMACEUTICAL COMPOSITION FOR TREATING TYPE II DIABETES” (LUMISTAR BIOTECHNOLOGY, INC., priority 2023, published 2025).

The test system of experiment [1] is MIN6 cells. As to the kind of experiment: Insulin secretion by hINS-GLuc luciferase reporter in MIN6 β cells under high glucose. Format: cell-based, mouse. The conditions noted are these: 20 mM glucose; for position among the top five compounds with significant increase in insulin secretion relative to high glucose stimulation: Table 2; for insulin secretion compared to the DMSO control group (luminescence signals from secreted insulin): MIN6 cells, FIG. 4. As for the experimental part:
With the inclusion of a luciferase-tagged insulin construct, hINS-GLuc allows for rapid quantification of secreted insulin in the supernatant for drug screening, unlike the traditional method of measuring insulin via ELISA. This quantification is achieved by measuring the luminescence (relative light units, RLU) upon adding the luciferin of coelenterazine.
For measuring insulin secretion, the medium will first be removed, and MIN6 cells will then be rinsed in Krebs-Ringer buffer (119 mM NaCl, 4.74 mM KCl, 2.54 mM CaCl2), 1.19 mM MgSO4, 1.19 mM KH2PO4, 25 mM NaHCO3, 10 mM Hepes, and 0.1% BSA, pH 7.4) before incubation with or without 20 mM glucose in Krebs-Ringer buffer. Compounds will be added at a final concentration of 25 μM for two hours. At the end of the incubation period, the buffer will be removed, and the cells will then be briefly centrifuged, with the supernatant collected for measuring insulin secretion. Measurement of insulin secretion and C-peptide release will be performed using either an insulin or C-peptide ELISA kit (FIG. 1A), according to the manufacturer's instructions (Mercodia), or by measuring luminescence after adding luciferin (FIGS. 2A, 2B, and 4).
With the establishment of reporter platform in β cell lines, 50 drugs screening with compounds associated with pathways associated with metabolic diseases are conducted. This included inhibitor or agonist against Glucagon-like peptide-1 (GLP-1), Cytochrome c oxidase (COX), Phosphodiesterase (PDE), AMP activated protein kinase (AMPK), dipeptidyl peptidase-4 (DPP-4), calcium and potassium channels, 5-hydroxytryptamine (5-HT) or estrogen/progestogen receptors. As compounds can either “trigger” insulin secretion (i.e., in low glucose condition) or “amplify” insulin secretion (i.e., in high glucose condition). To mimic hyperglycemic condition, the compounds that may amplify insulin secretion under high glucose conditions have been chosen.
To enable this screen, we adapted a 96 well format with β cells plated 74 hours prior to compound challenge in triplicates. Post-stimulation, supernatant was aliquoted and transferred into at least 2 empty plates for either storage or luciferase measurement with the addition of coelenterazine.
FIG. 4 is a relative light unit graph depicting the ability of various 5-HT1A receptor antagonists to induce insulin secretion in MIN6 cells in the presence of a high concentration of glucose.

Experiment [2] concerns MIN6 cells. As to the kind of experiment: Single cell Ca2+ flux monitoring with K-GECO1 reporter. The class given is cell-based, mouse. As to conditions: 20 mM glucose and 25 μM WAY-100635 Maleate, FIG. 3C. The text has this:
One component of the reporter construct is a red fluorescent protein (RFP)-based Ca^2+ indicator (i.e., K-GECO1, reporter with an affinity for calcium ion) that is expressed within the cytoplasm. In this example, an inverted microscope (D1, Zeiss) equipped with a 63 Å˜objective lens (NA 1.4, Zeiss) and a multiwavelength LED light source (pE-4000, CoolLED) will be used. Blue (470 nm) and green (550 nm) excitation will be used to illuminate ChR2-EYFP and K-GECO1, respectively. The green fluorescent protein (GFP) filter set, and the red fluorescent protein (RFP) filter set will be used to confirm the expression of ChR2-EYFP and K-GECO1 in cells. […]
This allowed the detection of Ca^2+ influx into β cell as a consequence of calcium channel opening. β cells expressing the reporter construct were first stimulated with glucose (e.g., 20 mM glucose) to establish a baseline profile of Ca^2+ influx over time. […] FIG. 3A is the fluorescence intensity graph using the K-GECO1 reporter gene in Min6 cells to monitor glucose stimulation; and FIG. 3B is a representative image using the K-GECO1 reporter gene in Min6 cells after glucose stimulation. In FIG. 3A, the horizontal axis represents time (minutes), the vertical axis represents fluorescence intensity, and an arrow represents the point of stimulation and lines represent individual cells. […]

As for `O=c1c(O)c(-c2ccc(O)cc2)oc2cc(O)cc(O)c12` [Kaempferol], the “position among the top five compounds with significant increase in insulin secretion relative to high glucose stimulation” value in experiment [1] (compound 25 μM, two hours) stood at 2.

In the case of `CCC(=O)c1c(O)cc(O)cc1O` [Flopropione], in experiment [1], the “insulin secretion compared to the DMSO control group (luminescence signals from secreted insulin)” value is listed as “did not show a significant increase”.

In the case of `CC(C)Cn1c(=O)n(C)c(=O)c2[nH]cnc21` [IBMX], the “position among the top five compounds with significant increase in insulin secretion relative to high glucose stimulation” value in experiment [1] (compound 25 μM, two hours) was determined as 4.

Take `Cc1[nH]c(=O)c(C#N)cc1-c1ccncc1` [Milrinone]: in experiment [1] (compound 25 μM, two hours), the “position among the top five compounds with significant increase in insulin secretion relative to high glucose stimulation” value is on record as 5.

On to `COc1ccccc1N1CCN(CCN(C(=O)C2CCCCC2)c2ccccn2)CC1.O=C(O)/C=C\C(=O)O` [WAY-100635 maleate], for which the “insulin secretion compared to the DMSO control group (luminescence signals from secreted insulin)” value in experiment [1] is “significantly increased”. In addition, the “insulin secretion relative to high glucose stimulation alone (luminescence, RLU)” value in experiment [1] (compound 25 μM, two hours, reporter expressing β cells, FIG. 2A) is on record as “promotes insulin secretion”. Further, the “position among the top five compounds with significant increase in insulin secretion relative to high glucose stimulation” value in experiment [1] (compound 25 μM, two hours) was 3. Besides, in experiment [2], the “Ca2+ influx profile (K-GECO1 fluorescence intensity)” value was “significant change in Ca^2+ influx profile”.

Take Exendin-4: in experiment [1] (compound 25 μM, two hours), the “position among the top five compounds with significant increase in insulin secretion relative to high glucose stimulation” value is 1.

Consider `C[C@H](CN(C(=O)c1ccc(C#N)cc1)c1ccccn1)N1CCN(c2cccc3c2OCCO3)CC1` [Lecozotan], for which the “insulin secretion compared to the DMSO control group (luminescence signals from secreted insulin)” value in experiment [1] was “did not show a significant increase”.
